Experimental data as given in US4233309A, “Novel 1-substituted-3-acylpyrrole derivatives, platelet aggregation inhibitors containing them, as active ingredients, and processes for production of said derivatives” (Teijin Limited, priority 1977, dated 1980).
Converted amounts (≈) assume the structure as drawn. Where two headings read alike, the source gives them in different places.

What was measured:
[1] = test system: platelet aggregation (guinea pig PRP, extra vivo); assay: Inhibitory effect of compounds on platelet aggregation in extra vivo (Table 4); design: species or system Hartley-strain guinea pigs; details: Cavia porcellus, 100 mg/kg, route PS [sic], 1 h
Description: The effect of the compounds shown in Table 4 on platelet aggregation was assessed using guinea pig in extra vivo.
Each of the test compounds was dissolved in propylene glycol so that its concentration became 100 mg/ml (dosage corresponded to 100 mg/kg) and 30 mg/ml (dosage corresponded to 30 mg/kg). The drug solution was administered either orally or subcutaneously to Hartley-strain guinea pigs (3 per group) having a body weight of 300 to 350 g. As a control, propylene glycol was administered. One hour after the administration, citrated blood was taken out by cardiac puncture, and centrifuged to obtain PRP (see Example 67).
In the case of oral administration, the animals had been fasted overnight.
Into a quvett set in a holder of an aggregometer and prewarmed at 37° C. with stirring, was put 450 μl of the above PRP, and then 50 μl of an aggregating agent was added. The aggregation curve was recorded for an additional 3 minutes, and an increase in light transmittance through PRP after 3 minutes (TB) was recorded (see Example 67). As a control, an increase of transmittance of PRP taken from a guinea pig group administered with propylene glycol alone (TA) was recorded in the same way above. The percent inhibitions were calculated in accordance with the following equation. [formula]
As the aggregating agent, sodium arachidonate (a final concentraton of 0.03 mM) and a collagen suspension (a final concentration of 5 μg/ml) were used.
The percent inhibitions in the above table are averages of three guinea pigs. For details of the above extra vivo test about inhibition of platelet aggregation, the literature references described in Example 67 may be referred to.

[2] = test system: platelet aggregation (platelet-rich plasmas (PRP) of guinea pigs); assay: Activity of inhibiting platelet aggregation in vitro, guinea pig PRP, sodium arachidonate as aggregating agent (Table 1); format: cell-based, Hartley-strain male guinea pigs; details: Cavia porcellus, sodium arachidonate 0.03 mM final, 37° C., final concentration, read-out: IC50 (minimum concentration of drug which showed a percent inhibition of more than 50%)
Description: (§1) Some 1-substituted-3-acylpyrrole derivatives and other drugs were tested for platelet aggregation inhibiting activities in vitro using platelet-rich plasmas (PRP) of man and guinea pigs. The results are shown as minimum concentration of drugs which inhibit more than 50% of platelet aggregation induced by several aggregating agents.
(§2) In experiments with PRP of guinea pigs, sodium arachidonate (final concentration 0.03 mM) was used as an aggregating agent. In experiments with human PRP, sodium arachidonate (final concentration 0.1 mM), collagan suspension (final concentration 10 μg/ml), epinephrine solution (final concentration 20 μg/ml; for secondary aggregation), an epinephrine solution (final concentration 2 μg/ml; for primary aggregation) and ADP (final concentration 5 μM) were used as aggregating agents.
In an experiment with guinea pig PRP, citrated blood (containing 0.38% sodium citrate as a final concentration) was withdrawn by cardiac puncture from Hartley-strain male guinea pigs having a body weight of 350 to 600 g. The citrated blood was centrifuged at 1,000 rpm for 10 minutes at room temperature, and the supernatant platelet suspension (PRP) was separated.
The PRP was stored at room temperature, and used as soon as possible. Those which had been stored for more than 4 hours after preparation were not used.
(§3) For each test, a drug is dissolved in dimethylsulfoxide to a concentration of 10 mg/ml, and diluted with physiological saline to form 1 ml each of solutions having a concentration of 2500 μg/ml, 1000 μg/ml, 750 μg/ml, 500 μg/ml, 250 μg/ml and 100 μg/ml. A compound having a free carboxylic acid as a residue such as indomethacine and Ibprofen was dissolved in 0.1 M NaHCO3 to form a sodium salt solution having a concentration of 10 mg/ml. Then, the solution was diluted with physiological saline in the same way as above to form a test drug solution.
(§4) Arachidonic acid (99% pure, a product of Sigma Co., Ltd.) was dissolved in 0.1 M NaHCO3, and a 3.3 mM solution of sodium arachidonate was prepared. The solution was diluted with physiological saline to a concentration of 1 mM and used in the experiments. The 3.3 mM solution was stored in a refrigerator as a stock solution, and the 1 mM solution was newly prepared from the stock solution every time it was used.
(§5) Physiological saline (50 μl) and 50 μl of the aggregating agent solution were added to 400 μl of PRP which had been pre-warmed and stirred at 37° C. in a quvett set in a holder of an aggregometer. Platelet aggregation was thus initiated, and the change of light transmittance through a stirred platelet suspension was recorded for 3 minutes by a recorder joined to the aggregometer. An increase in transmittance after 3 minutes (T0) was used as a parameter of the rate of platelet aggregation in control experiments.
To 400 μl of PRP in a quvett was added 50 μl of a test drug solution. The mixture was pre-incubated and stirred for 2 minutes at 37° C. Then 50 μl of the aggregating agent was added to drug containing PRP and again aggregation responses were recorded as increases in light transmittance after 3 minutes (T1) in the same way as in (1) above. Percent inhibition was calculated from the formula [formula]
For the above in vitro test for the inhibition of platelet aggregation, reference may be had to H. M. Davis, J. Phyllis, K. Paul and W. Terry: Thromb. Res. 11, 217-226 (1977) and R. E. Anderson and J. G. Foulks: Thromb. Haemos. 36, 343-359 (1976).

[3] = test system: biosynthesis of prostaglandins (microsomes of the seminal vesicle of bovine); assay: Inhibitory effect on prostaglandin biosynthesis in vitro (Table 3); format: biochemical; details: 4 μg/ml sodium arachidonate, bioassay on rat fundus stomach strips
Description: Sprangue-Dawley rats (male, 180-200 g) were fasted overnight, and killed by blow on the head. The stomach was isolated, and fundus stomach strips were prepared. The smooth muscle strips were perfused with Krebs-Hensleit solution (gassed with 95% O2 +5% CO2 gas) of 37° C. at a rate of […]. The Krebs-Hensleit solution contained 0.1 μg/ml of atropine, 0.1 μg/ml of phenoxybenzamine, 3 μg/ml of propranolol, 0.1 μg/ml of tripelennamine, and 0.2 μg/ml of methylsergide to prevent the effect of smooth muscle contracting substances, and 1 μg/ml of indomethacine to inhibit the biosynthesis of prostaglandin by the smooth muscles. Then, 150 μl of a reaction solution containing biologically synthesized prostaglandin was added to the perfusion solution, and the amount of the biologically synthesized prostaglandin was measured from the contraction of the smooth muscles. The contraction of the smooth muscles was recorded on a recorder using an isotonic transducer.
The reaction solution containing biologically synthesized prostaglandin was prepared in the following manner.
To 0.4 mg/ml of microsomes of the seminal vesicle of bovine were added 5 mM of L-tryptophan, 0.025 μM of bovine hemoglobin and 3 mμ of glutathione as cofactors. The mixture was incubated together with each of the test compounds shown in Table 4 at 37° C. for 2 minutes, and immediately then, 4 μg/ml of sodium arachidonate was added. The mixture was further incubated at 37° C. for 10 minutes, and immediately then, the prostaglandin activity of the reaction solution was measured by bioassay.
The microsomes of the seminal vesicle of bovine had been prepared by suspending microsomes of the seminal vesicle of bovine (a product of Miles Laboratories, Inc.) in a 50 mM Tris.HCl buffer (pH 7.4) using a glass homogenizer, and stored in ice water prior to use.
ID50 denotes the concentration of each test compound required to inhibit the biosynthesis of prostaglandins by 50%.

carrageenan edema = assay: Antiinflammatory activity (carrageenan edema of rat paw, Table 5); format: in vivo, Sprangue-Dawley (SD) male rats; details: 25 mg/kg, 3 h after 1% carrageenan
Description: Sprangue-Dawley (SD) male rats with a body weight of 160 to 180 g, four in each group, were used. The volume of the left leg was measured, and each of the test compounds shown in Table 5 (100 mg/kg dissolved in polyethylene glycol so as to provide a volume of 2 ml/kg) was orally administered. One hour later, 0.1 ml of 1% carrageenan (dissolved in physiological saline) as an inflammation-inducing substance was subcutaneously injected to the paw of the left hind leg. A control group was orally administered with 2 ml/kg of polyethylene glycol. As a positive control, 25 mg/kg of Ibprofen was similarly administered. Three hours after the injection of 1% carrageenan, the volume of the left leg was measured, and the ratio of edema was calculated from the volume before the administration of the carrageenan. The percent inhibition of edema in comparison with the control group was determined.

[4] = test system: platelet aggregation (human PRP); assay: Activity of inhibiting platelet aggregation in vitro, human PRP, several aggregating agents (Table 2); format: cell-based, human (healthy volunteers)
Description: as §1, §2
In the experiment using human PRP, heapinized blood (containing 20 IU/ml of heparin) was taken from the cubital vein of healthy volunteers, and centrifuged at 1,000 rpm at room temperature for 10 minutes. The supernatant platelet suspension (PRP) was separated.
as §3, §4
The collagen suspension (made by Hormon-Chemie, West Germany) was diluted with physiological saline to a concentraton of 100 μg/ml.
Epinephrine hydrogen tartarate was dissolved in physiological saline to form solutions having a concentration of 200 μg/ml (corresponding to a final concentration of 2 μg/ml).
Disodium salt of ADP was dissolved in a 0.1 M tris-hydrochloric acid buffer to form a 50 μM solution (corresponding to a final concentraton of 5 μM).
as §5
To 400 μl of PRP in a quvett was added 50 μl of a test drug solution. The mixture was pre-incubated and stirred for 2 minutes at 37° C. Then 50 μl of the aggregating agent was added to drug containing PRP and again aggregation responses were recorded as increases in light transmittance after 3 minutes (T1) in the same way as in (1) above. Percent inhibition was calculated from the formula [formula] […]

[5] = collagen 5 μg/ml, read-out: Percent inhibition of platelet aggregation, collagen
[6] = sodium arachidonate 0.03 mM, read-out: Percent inhibition of platelet aggregation, sodium arachidonate

SMILES | IC50 [2] [µg/mL] | ID50 (concentration required to inhibit the biosynthesis of prostaglandins by 50%) [3] [µg/mL] | also measured
CC(=O)Oc1ccccc1C(=O)O [Acetylsalicylic acid, reference compound] | – | – | inhibition at 100 mg/kg [1, 5]: 41%; inhibition at 100 mg/kg [1, 6]: 77%
Cc1cc(C(=O)c2ccccc2)c(C)n1CCO [Compound 100, 2-(3-benzoyl-2,5-dimethylpyrrol-1-yl)-ethanol] | 5 (≈ 20.6 µM) | 145.3 | –
Cc1cc(C(=O)c2ccccc2)c(C)n1[C@@H](C)CO [Compound 108, (2S)-2-(3-benzoyl-2.5-dimethylpyrrol-1-yl)-2-methylethanol] | 5 (≈ 19.4 µM) | – | inhibition at 100 mg/kg [1, 5]: 14%; inhibition at 100 mg/kg [1, 6]: 62%
Cc1cc(C(=O)c2ccccc2)c(C)n1[C@H](C)CO [Compound 110, (2R)-2-(3-benzoyl-2,5-dimethylpyrrol-1-yl)-2-methylethanol] | 1 (≈ 3.89 µM) | – | inhibition at 100 mg/kg [1, 5]: 90%; inhibition at 100 mg/kg [1, 6]: 96%
COC(c1ccccc1)C(C)n1c(C)cc(C(=O)c2ccccc2)c1C (centres unmarked) [Compound 218, 2-(3-benzoyl-2,5-dimethylpyrrol-1-yl)-2-methyl-1-phenylethyl methyl ether] | 5 (≈ 14.4 µM) | – | –
COCCn1c(C)cc(C(=O)c2ccccc2C)c1C [Compound 238, 2-(3-o-methylbenzoyl-2,5-dimethylpyrrol-1-yl) ethyl methyl ether] | 10 (≈ 36.9 µM) | – | –
COCCn1c(C)cc(C(=O)c2cccs2)c1C [Compound 252, 2-[3-(2-thenoyl)-2,5-dimethylpyrrol-1-yl]-ethyl methyl ether] | 2.5 (≈ 9.49 µM) | – | –
CCCCC(=O)OCC(C)n1c(C)cc(C(=O)c2ccccc2)c1C (centres unmarked) [Compound 310, 2-(3-benzoyl-2,5-dimethylpyrrol-1-yl)-2-methylethyl valerate] | 2.5 (≈ 7.32 µM) | 11.5 | –
Cc1cc(C(=O)c2ccccc2)c(C)n1C(C)COC(=O)c1ccccc1 (centres unmarked) [Compound 314, 2-(3-benzoyl-2,5-dimethylpyrrol-1-yl)-2-methylethyl benzoate] | 1 (≈ 2.77 µM) | 56.0 | –
CC(=O)OC(c1ccccc1)C(C)n1c(C)cc(C(=O)c2ccccc2)c1C (centres unmarked) [Compound 328, 2-(3-benzoyl-2,5-dimethylpyrrol-1-yl)-2-methyl-1-phenylethyl acetate] | 2.5 | – | –
Cc1cc(C(=O)c2ccccc2)c(C)n1CCSc1ccccc1 [Compound 404, 2-(3-benzoyl-2,5-dimethylpyrrol-1-yl)ethyl phenyl sulfide] | 2.5 (≈ 7.45 µM) | – | –
CCOC(=O)C(C)n1c(C)cc(C(=O)c2ccccc2)c1C (centres unmarked) [Compound 706, ethyl 2-(3-benzoyl-2,5-dimethylpyrrol-1-yl) propionate] | 1 (≈ 3.34 µM) | 20.0 | –
Cc1cc(C(=O)c2ccccc2)c(C)n1C(C)C(N)=O (centres unmarked) [Compound 802, 2-(3-benzoyl-2,5-dimethylpyrrol-1-yl)propionamide] | 5 (≈ 18.5 µM) | – | inhibition at 100 mg/kg [1, 5]: 40%; inhibition at 100 mg/kg [1, 6]: 100%
CC(C)Cc1ccc(C(C)C(=O)O)cc1 (centres unmarked) [Ibprofen, reference compound] | – | – | Percent inhibition of edema (positive control) (carrageenan edema): 51%
COc1ccc2c(c1)c(CC(=O)O)c(C)n2C(=O)c1ccc(Cl)cc1 [Indomethacine] | 5 (≈ 14 µM) | 0.6 | IC50 ([4]; ADP 5 μM, read-out: IC50, aggregation by ADP): 10 µg/mL (≈ 27.9 µM); IC50 ([4]; arachidonate 0.1 mM, read-out: IC50, aggregation by arachidonate): 1 µg/mL (≈ 2.79 µM); IC50 ([4]; collagen 10 μg/ml, read-out: IC50, aggregation by collagen): 10 µg/mL (≈ 27.9 µM); IC50 ([4]; epinephrine 2 μg/ml, primary aggregation, read-out: IC50, aggregation by epinephrine, primary): 10 µg/mL (≈ 27.9 µM); IC50 ([4]; epinephrine 20 μg/ml, secondary aggregation, read-out: IC50, aggregation by epinephrine, secondary): 1 µg/mL (≈ 2.79 µM)
